Measured values from US20160374975A1, “COMPOSITION FOR TREATMENT OF NAFLD” (Pronova BioPharma Norge AS, priority 2015, published 2016).

Assays:
HepG2 cells = test: Intracellular lipid accumulation in steatic HepG2 cells (in vitro model of NAFLD), oil red O staining, OD 490 nm; type: cell-based, human; conditions: steatic HepG2 cells treated with EPA/DHA, PCB 153 final concentration 50 μM, 24 hours at 37° C., versus DMSO alone
Method: Palmitic (C16:0) and oleic (C18:1) acids are the most abundant fatty acids in liver triglycerides in both normal subjects and patients with NAFLD. The human hepatocyte-derived cell line HepG2 cells were seeded in a 96 well plate at a density of 5000 cells/well on Day 1. […] Intracellular accumulation of lipids was detected and quantified by oil red O staining using spectrophotometry at wavelength 490 nm. Oil red O color intracellular lipids droplets after cell fixation with paraformaldehyde. Absence of cell death was confirmed using a colometric lactate dehydrogenase (LDH) assay. Lactate dehydrogenase (LDH) is a cytosolic enzyme present in many different types of cells. When the plasma membrane is damaged, LDH is released into cell culture media. The released LDH was quantified by a coupled enzymatic reaction using a LDH cytotoxicity kit, and following the procedure according to the manufacture's instruction.
To assess the effect of n-3 PUFA on experimental NAFLD, the HepG2cells were treated with EPA and DHA at a concentration of 100 μM (1:1), or with fatty acids-free bovine serum albumin (BSA), as a control, together with 1 mM Oleic/Palmitic acid for 24 hours. […] Intracellular accumulation of lipids was detected and quantified by oil red O staining using spectrophotometry at wavelength 490 nm. […]

mice = conditions: HFD+PCB 153 treated mice compared with HFD treatment alone; cited from earlier work
male C57BL6/J mice = conditions: PCB 153 exposure in high-fat-fed mice; not seen with HFD alone or PCB 153 alone; cited from earlier work

## Clc1cc(Cl)c(-c2cc(Cl)c(Cl)cc2Cl)cc1Cl [PCB 153, polychlorinated biphenyl 153]
HepG2 cells
  Effect on the benefit of n-3 PUFA (EPA/DHA) on development of steatosis (intracellular lipids, oil red O): diminish the beneficial effect
mice
  Reduction of hepatic glutathione: 6 fold
Male C57BL6/J mice
  Visceral adiposity, hepatic steatosis, and plasma adipokines: increased
